For experiment [1], the system named is HT1080 fibrosarcoma cells. As to the kind of experiment: Viability of HT1080 fibrosarcoma cells after treatment. Format: cell-based. The following applies: various doses, 24 hours treatment.
Experiment [2] relates to NFKB. The experiment in a line: NFKB reporter activity in THP1-Dual monocytes co-cultured with treated HT1080 cells. Format: cell-based, human. Particulars: HT1080 cells treated 24 hours, then co-culture with THP1-Dual cells 24 hours; versus DMSO. Here is the method:
HT1080 fibrosarcoma cells were treated with either control (DMSO) or various doses of Erastin, piperazine erastin (PE), or imidazole ketoerastin (IKE) for 24 hours prior to co-culture with THP1-Dual cells for an additional 24 hours. Erastin was purchased from Selleckchem (Houston, Tex.) and dissolved in DMSO. Subsequently, the THP1 supernatants were assessed for nuclear factor kappa-light-chain-enhancer of activated B cells (NFKB) or interferon regulatory factor (IRF) reporter activity.
HT1080 cells were acquired from ATCC and THP1-Dual cells were acquired from InvivoGen (San Diego, Calif.). THP1-Dual cells are human monocyte cells that induce reporter proteins upon activation of either NFKB or IRF pathways. Both cell types were cultured in 96-well plates for the duration of the assay. HT1080 cells were cultured in DMEM with 10% FBS, and THP1-Dual cells were cultured in RPMI with 10% FBS. 7,500 HT1080 cells were plated 24 hours prior to dosing with Erastin, PE, or IKE, with a final DMSO concentration of 0.5%. 24 hours post-treatment, THP1-Dual cells (25,000 cells/well) were added to the HT1080 cells. 24 hours later, 30 μl of supernatant was mixed with either 200 μl QuantiBlue (InvivoGen, San Diego, Calif.) (for NFKB reporter activity) or 50 μl QuantiLuc (for IRF reporter activity) and absorbance or luminescence was recorded on a Molecular Devices plate reader.
HT1080 fibrosarcoma cells were treated with various doses of Erastin (e.g. […], 0.16, 0.31, 0.63, 1.25, 2.5, 5, 10 or 20 μM) alone or in combination with a ferroptosis inhibitor (1 μM Ferrostatin-1, 1 μM Liproxstatin-1, 100 μM Trolox, 25 μM β-Mercaptoethanol or 100 μM Deferoxamine) for 24 hours prior to co-culture with THP1-Dual cells for an additional 24 hours. Ferrostatin-1 and Liproxstatin-1 were purchased from Selleckchem (Houston, Tex.) and dissolved in DMSO. Trolox was purchased from Cayman Chemical Company Inc and resuspended in DMSO. […] Subsequently, the THP1 supernatant was assessed for NFKB activity. […]

Experiment [3] concerns PANC1 pancreatic cancer cells. As to the kind of experiment: Viability of PANC1 pancreatic cancer cells after treatment. In kind it is cell-based. The following applies: various doses, 24 hours treatment.
Experiment [4] deals with NFKB. As to the kind of experiment: NFKB reporter activity in THP1-Dual monocytes co-cultured with treated PANC1 cells. Format: cell-based, human. Particulars: PANC1 cells treated 24 hours, then co-culture with THP1-Dual cells 24 hours; versus DMSO. How it is done: PANC1 pancreatic cancer cells were treated with either control (DMSO) or various doses of Erastin, for 24 hours prior to co-culture with THP1-Dual cells for an additional 24 hours. Erastin was purchased from Selleckchem (Houston, Tex.) and dissolved in DMSO. Subsequently, the THP1 supernatants were assessed for NFKB or IRF reporter activity.
PANC1 cells were acquired from ATCC and THP1-Dual cells were acquired from InvivoGen (San Diego, Calif.). Both cell types were cultured in 96-well plates for the duration of the assay. 7,500 PANC-1 cells were plated 24 hours prior to dosing with Erastin, with a final DMSO concentration of 0.5%. 24 hours post-treatment, THP1-Dual cells (25,000 cells/well) were added to the PANC-1 cells. 24 hours later, 30 μl of supernatant was mixed with either 200 μl QuantiBlue (InvivoGen, San Diego, Calif.) or 50 μl QuantiLuc and absorbance or luminescence was recorded on a Molecular Devices plate reader.

Experiment [5] relates to Caki-1 renal cell carcinoma cells. The experiment in a line: Viability of Caki-1 renal cell carcinoma cells after treatment. In kind it is cell-based. Particulars: for viability of Caki-1 cells: various doses, 24 hours treatment.
Method: Caki-1 renal carcinoma cells were treated with either control (DMSO) or various doses (e.g. 0.002, 0.005, 0.014, 0.041, 0.123, 0.370, 1.111, 3.333 and 10 μM) of a GPX4 inhibitor (RSL3 or ML162) in the presence or absence of 1 μM Ferrostatin for 24 hours prior to co-culture with THP1-Dual cells for an additional 24 hours. […] Caki-1 cells were acquired from ATCC and THP1-Dual cells acquired from InvivoGen (San Diego, Calif.). Both cell types were cultured in 96-well plates for the duration of the assay.
For experiment [6], the system named is NFKB. The experiment in a line: NFKB reporter activity in THP1-Dual monocytes co-cultured with treated Caki-1 cells. Format: cell-based, human. The following applies: for NFKB signaling/activity in THP1 monocytes: Caki-1 cells treated 24 hours, then co-culture with THP1-Dual cells 24 hours, versus DMSO. How it is done: Caki-1 renal cell carcinoma cells were treated with either control (DMSO) or various doses of Erastin, for 24 hours prior to co-culture with THP1-Dual cells for an additional 24 hours. Erastin was purchased from Selleckchem (Houston, Tex.) and dissolved in DMSO. Subsequently, the THP1 supernatants were assessed for NFKB or IRF reporter activity.
Caki-1 cells were acquired from ATCC and THP1-Dual cells acquired from InvivoGen (San Diego, Calif.). Both cell types were cultured in 96-well plates for the duration of the assay. 7,500 Caki-1 cells were plated 24 hours prior to dosing with Erastin, with a final DMSO concentration of 0.5%. 24 hours post-treatment, THP1-Dual cells (25,000 cells/well) were added to the Caki-1 cells. 24 hours later, 30 μl of supernatant was mixed with either 200 μl QuantiBlue (InvivoGen) or 50 μl QuantiLuc and absorbance or luminescence was recorded on a Molecular Devices plate reader.
Caki-1 renal cell carcinoma cells were treated with either control (DMSO) or various doses of RSL3, for 24 hours prior to co-culture with THP1-Dual cells for an additional 24 hours. RSL3 was purchased from Selleckchem and dissolved in DMSO. Subsequently, the THP1 supernatants were assessed for NFKB or IRF reporter activity.
Caki-1 cells were acquired from ATCC and THP1-Dual cells acquired from InvivoGen (San Diego, Calif.). Both cell types were cultured in 96-well plates for the duration of the assay. 7,500 Caki-1 cells were plated 24 hours prior to dosing with RSL3, with a final DMSO concentration of 0.5%. 24 hours post-treatment, THP1-Dual cells (25,000 cells/well) were added to the Caki-1 cells. 24 hours later, 30 μl of supernatant was mixed with either 200 μl QuantiBlue (InvivoGen, San Diego, Calif.) or 50 μl QuantiLuc and absorbance or luminescence was recorded on a Molecular Devices plate reader.
Caki-1 renal carcinoma cells were treated with either control (DMSO) or various doses (e.g. 0.002, 0.005, 0.014, 0.041, 0.123, 0.370, 1.111, 3.333 and 10 μM) of a GPX4 inhibitor (RSL3 or ML162) in the presence or absence of 1 μM Ferrostatin for 24 hours prior to co-culture with THP1-Dual cells for an additional 24 hours. Subsequently, the THP1 supernatant was assessed for NFKB reporter activity. Caki-1 cells were acquired from ATCC and THP1-Dual cells acquired from InvivoGen (San Diego, Calif.). Both cell types were cultured in 96-well plates for the duration of the assay.

Experiment [7] relates to cells overexpressing oncogenic HRAS. The following applies: engineered human fibroblast cell lines; Dolma et al., 2003; cited from earlier work.
Another experiment relates to A20 lymphoma cells. The experiment in a line: Viability of A20 B-cell leukemia / lymphoma cells after treatment. Particulars: for viability of A20 cells: various doses, 24 hours treatment. Format: cell-based.
The test system of experiment [8] is NFKB. As to the kind of experiment: NFKB reporter activity in THP1-Dual monocytes co-cultured with treated A20 cells. Format: cell-based, human. The following applies: for NFKB signaling/activity in THP1 monocytes: A20 cells treated 24 hours, then co-culture with THP1-Dual cells 24 hours, versus DMSO. How it is done:
A20 B-cell leukemia cells were treated with either control (DMSO) or various doses of RSL3, for 24 hours prior to co-culture with THP1-Dual cells for an additional 24 hours. RSL3 was purchased from Selleckchem (Houston, Tex.) and dissolved in DMSO. Subsequently, the THP1 supernatants were assessed for NFKB or IRF reporter activity.
A20 cells were acquired from ATCC and THP1-Dual cells acquired from InvivoGen (San Diego, Calif.). Both cell types were cultured in 96-well plates for the duration of the assay. 50,000 A20 cells were plated 24 hours prior to dosing with RSL3, with a final DMSO concentration of 0.5%. 24 hours post-treatment, THP1-Dual cells (25,000 cells/well) were added to the A20 cells. 24 hours later, 30 μl of supernatant was mixed with either 200 μl QuantiBlue (InvivoGen, San Diego, Calif.) or 50 μl QuantiLuc and absorbance or luminescence was recorded on a Molecular Devices plate reader.
A20 lymphoma cells were treated with various doses (e.g. 0.002, 0.005, 0.014, 0.041, 0.123, 0.370, 1.111, 3.333 and 10 μM) of a GPX4 inhibitor (RSL3, ML162 or ML210) in the presence or absence of 1 μM Ferrostatin-1 for 24 hours. ML162 was purchased from Cayman Chemical Company Inc and resuspended in DMSO. ML210 was purchased from Sigma-Aldrich and resuspended in DMSO. A20 lymphoma cells were also treated with DMSO as a negative control. After treatment with DMSO or a GPX4 inhibitor for 24 hours, the A20 lymphoma cells were co-cultured with THP1-Dual cells for an additional 24 hours. Subsequently, the THP1 supernatant was assessed for NFKB reporter activity. A20 cells were acquired from ATCC and THP1-Dual cells were acquired from InvivoGen (San Diego, Calif.). Both cell types were cultured in 96-well plates for the duration of the assay.

Entries after “also recorded” stand apart in the source; their conditions may differ.

Take `CCOc1ccccc1-n1c(C(C)N2CCN(C(=O)COc3ccc(Cl)cc3)CC2)nc2ccccc2c1=O` (stereo not drawn) [Erastin, erastin]: the “viability of HT1080 cells” value in experiment [1] is given as “negatively affected the viability; also recorded: decreased viability of the cells in a dose dependent manner”. Moreover, the “NFKB signaling/activity in THP1 monocytes” value (from here on “NFKB signaling/activity”) in the experiment on NFKB [2] is given as “elicited NFKB signaling; also recorded: increased NFKB activity in THP1 cells in a dose dependent manner”; with NFKB [6], “elicited NFKB signaling”. Further, the “viability of PANC1 cells” value in experiment [3] is recorded as “negatively affected the viability”. Besides, the “NFKB signaling in THP1 monocytes” value in the experiment with NFKB [4] was “elicited NFKB signaling”. Also, in [5], the “viability of Caki-1 cells” value was “negatively affected the viability”. In experiment [7], the “lethality in cells overexpressing oncogenic HRAS” value was “induce preferential lethality”.

Take `CCOC(=O)c1ccc(NC2CCCCC2)c(N)c1` [Ferrostatin-1]: in experiment [5] (1 μM Ferrostatin-1 together with RSL3 or ML162, 24 hours), the “effect on GPX4 inhibitor-decreased viability of Caki-1 renal carcinoma cells” value is “attenuated”. Further, the “effect on GPX4 inhibitor-increased NFKB activity in THP1 cells” value with NFKB [6] (Caki-1 cells, 1 μM Ferrostatin-1 together with RSL3 or ML162, then THP1-Dual co-culture 24 hours) is “attenuated”; in the experiment on NFKB [8] (A20 cells, 1 μM Ferrostatin-1 together with RSL3, ML162 or ML210, then THP1-Dual co-culture 24 hours), “attenuated”. Besides, the “effect on GPX4 inhibitor-decreased viability of A20 lymphoma cells” value in the experiment with A20 lymphoma cells (1 μM Ferrostatin-1 together with RSL3, ML162 or ML210, 24 hours) is “attenuated”.

Turning to `CC(C)Oc1ccc(C(=O)Cn2ccnc2)cc1-n1c(CN2CCN(C(=O)COc3ccc(Cl)cc3)CC2)nc2ccccc2c1=O` [IKE, imidazole ketoerastin], the “viability of HT1080 cells” value in [1] is “negatively affected the viability”. For the same compound, the “NFKB signaling/activity” value in the experiment with NFKB [2] is “elicited NFKB signaling”.

Take `COc1ccc(N(C(=O)CCl)C(C(=O)NCCc2ccccc2)c2cccs2)cc1Cl` (stereo not drawn) [ML162]: in [5], the “viability of Caki-1 cells” value was “decreased viability of the cells in a dose dependent manner”. In addition, the “NFKB signaling/activity” value in the experiment with NFKB [6] and with NFKB [8] was “increased NFKB activity in THP1 cells in a dose dependent manner” throughout. Also, the “viability of A20 cells” value in the experiment on A20 lymphoma cells is “decreased viability of the cells in a dose dependent manner”.

Turning to `Cc1onc(C(=O)N2CCN(C(c3ccc(Cl)cc3)c3ccc(Cl)cc3)CC2)c1[N+](=O)[O-]` [ML210], the “viability of A20 cells” value in the experiment on A20 lymphoma cells is “decreased viability of the cells in a dose dependent manner”. In addition, the “NFKB signaling/activity” value with NFKB [8] is given as “increased NFKB activity in THP1 cells in a dose dependent manner”.

As for `CC(C)Oc1ccc(CN2CCNCC2)cc1-n1c(CN2CCN(C(=O)COc3ccc(Cl)cc3)CC2)nc2ccccc2c1=O` [PE, piperazine erastin], the “viability of HT1080 cells” value in [1] is “negatively affected the viability”. Moreover, the “NFKB signaling/activity” value in the experiment with NFKB [2] is on record as “elicited NFKB signaling”.

(Values after patent US20210251994A1, “INCREASING IMMUNE ACTIVITY THROUGH MODULATION OF POSTCELLULAR SIGNALING FACTORS” (FLAGSHIP PIONEERING INNOVATIONS V, INC., priority 2018, published 2021).)
